{
  "source": "patent US20150320700A1",
  "about": "“Geranium oil and constituents thereof for treatment of neurodegenerative diseases” (The State of Israel, Ministry of Agriculture & Ru ral …, priority 2012, published 2015)",
  "key": {"[1]": {"molecular_target": "T1, human erythrocytes' acetyl cholinesterase (Homo sapiens, UniProt P22303)", "T1 construct": "from tissue; host or cells: human erythrocytes", "T1 sequence (P22303 32-617 isoform P22303-2 limits assumed)": "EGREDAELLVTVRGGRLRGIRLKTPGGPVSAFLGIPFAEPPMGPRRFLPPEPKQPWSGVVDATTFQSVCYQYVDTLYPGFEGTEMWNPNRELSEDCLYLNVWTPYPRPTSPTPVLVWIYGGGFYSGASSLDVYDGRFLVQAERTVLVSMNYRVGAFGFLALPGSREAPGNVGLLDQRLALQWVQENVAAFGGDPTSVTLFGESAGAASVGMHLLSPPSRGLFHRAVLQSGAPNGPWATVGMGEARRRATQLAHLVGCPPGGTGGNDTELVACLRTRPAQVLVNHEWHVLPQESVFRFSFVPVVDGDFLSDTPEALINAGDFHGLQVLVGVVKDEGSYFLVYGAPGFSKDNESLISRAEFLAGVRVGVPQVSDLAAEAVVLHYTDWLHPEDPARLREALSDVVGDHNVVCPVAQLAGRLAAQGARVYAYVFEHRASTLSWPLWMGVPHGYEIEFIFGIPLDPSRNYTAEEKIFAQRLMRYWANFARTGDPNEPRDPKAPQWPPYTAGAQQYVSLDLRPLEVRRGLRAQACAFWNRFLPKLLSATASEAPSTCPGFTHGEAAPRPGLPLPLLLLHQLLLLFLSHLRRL", "test": "acetyl cholinesterase fluorescent activity assay", "format": "biochemical", "details": "human erythrocytes' acetyl cholinesterase 25 mU/mL, FIGS. 2-4", "method": "In this Example, Human erythrocytes acetyl cholinesterase (AChE) was incubated with different concentrations of geranium oil or each of its constituents.\n(§1) In the results shown in FIG. 2, the different constituents were incubated with human erythrocytes' acetyl cholinesterase (25 mU/mL). The activity of acetyl cholinesterase was determined using a commercially available kit (acetyl cholinesterase fluorescent activity assay kit, Arbor assays).\nThus, inventors have tested the effect of both enantiomers on the enzymatic activity. […] The different enantiomers of citronellol were incubated with human erythrocytes' acetyl cholinesterase (25 mU/mL). The enzymatic activity was determined using a commercially available kit (acetyl cholinesterase fluorescent activity assay kit, Arbor assays).\nas §1, with “In” for “In the results shown in”, “4,” for “2, the”, “constituents of geranium oil (Geraniol, Citronellol (+) and Citronellol formate)” for “constituents”"}, "primary microglial cells": {"test_system": "primary microglial cells", "test": "peroxyl radical-induced oxidation of DCFH (ROS) in primary microglial cells", "format": "cell-based", "details": "microglial cells incubated 1 h with compound; ABAP 0.6 mM; FIG. 1", "method": "Microglial cells were incubated for one h with (S)(−)citronellol (FIG. 1A) and (R)(+)citronellol (FIG. 1B). Primary cultures of microglial cells has been prepared according to Elmann et al., Journal of Functional Foods 2 (2010), pp. 18. As in Elmann et al. BMC Complementary and Alternative Medicine 2011, 11:98, the cultures of microglial cells were then preloaded with the non-fluorescent cell permeating compound, 2′7′-dichlorofluorescein diacetate (DCF-DA) for 30 min and washed with PBS, after which, 2,2′-Azobis(amidinopropane) (ABAP) (0.6 mM) was added and ROS levels were measured at the indicated time points. Each point on the graph represents mean±SEM of 2 experiments (n=8)."}},
  "note": "Where a name gives a salt, the structure may show the parent alone.",
  "data": [
    {"smiles": "CC(C)[C@@H]1CC[C@@H](C)CC1=O", "note": "[menthone]", "values": [
      {"measurement": "enzymatic activity of acetyl cholinesterase", "setting": "[1]", "value": "inhibited the enzymatic activity"}
    ]},
    {"smiles": "CC(C)=CCCC(C)CCOC=O", "note": "(centres unmarked) [citronellol formate, reference compound]", "values": [
      {"measurement": "enzymatic activity of acetyl cholinesterase", "setting": "[1]", "value": "none of the constituents geraniol, Citronellol (+) and citronellol formate could inhibit AChE activity"}
    ]},
    {"smiles": "CC(C)=CCC[C@@H](C)CCO", "note": "[(R)(+)citronellol, reference compound]", "values": [
      {"measurement": "peroxyl radical-induced oxidation of DCFH (ROS levels)", "setting": "primary microglial cells", "value": "inhibit the peroxyl radical-induced oxidation of DCFH"},
      {"measurement": "enzymatic activity of acetyl cholinesterase", "setting": "[1]", "value": "not (R)(+)citronellol could inhibit the enzymatic activity"},
      {"measurement": "enzymatic activity of acetyl cholinesterase", "setting": "[1]; listed as Citronellol (+)", "value": "none of the constituents geraniol, Citronellol (+) and citronellol formate could inhibit AChE activity"}
    ]},
    {"smiles": "CC(C)[C@H]1CC[C@@H](C)CC1=O", "note": "[isomenthone]", "values": [
      {"measurement": "enzymatic activity of acetyl cholinesterase", "setting": "[1]", "value": "inhibited the enzymatic activity"}
    ]},
    {"smiles": "CC(C)=CCC/C(C)=C/CO", "note": "[geraniol, reference compound]", "values": [
      {"measurement": "enzymatic activity of acetyl cholinesterase", "setting": "[1]", "value": "none of the constituents geraniol, Citronellol (+) and citronellol formate could inhibit AChE activity"}
    ]},
    {"smiles": "CC(C)=CCC[C@H](C)CCO", "note": "[(S)(−)-citronellol]", "values": [
      {"measurement": "peroxyl radical-induced oxidation of DCFH (ROS levels)", "setting": "primary microglial cells", "value": "inhibit the peroxyl radical-induced oxidation of DCFH"},
      {"measurement": "enzymatic activity of acetyl cholinesterase", "setting": "[1]", "value": "inhibited the enzymatic activity"},
      {"measurement": "enzymatic activity of acetyl cholinesterase", "setting": "[1]; listed as (S)(−)citronellol", "value": "could inhibit the enzymatic activity"}
    ]},
    {"smiles": "C=CC(C)(O)CCC=C(C)C", "note": "(centres unmarked) [linalool]", "values": [
      {"measurement": "enzymatic activity of acetyl cholinesterase", "setting": "[1]", "value": "inhibited the enzymatic activity"}
    ]}
  ]
}
